Test results taken from US20240336572A1, “SUBSTITUTED INDAZOLE PROPIONIC ACID DERIVATIVE COMPOUNDS AND USES THEREOF” (Pfizer Inc., priority 2023, published 2024).

Assays:
[1] = target: T1, AMPK 221 (Homo sapiens, UniProt O43741+P54646); experiment: Biochemical profiling of AMPK activators by AMPK221 (HTRF/TR-FRET assay, SAMS peptide, PP2A dephosphorylation protection); details: for EC50: phosphorylated AMPK 221 (α2β2δ1), 11 point dilution, duplicate, 4-parameter fit; for Emax: phosphorylated AMPK 221, maximal activation
T1 construct: open reading frames encoding the full-length α2, β2 and δ1 subunits of human AMPK; made in house; host or cells: E. coli BL21-CodonPlus (DE3)-RIPL, pET-14b
Experimental: (§1) The biochemical EC50 (half-maximal concentration required for full activation) of compounds for the activation of AMPK was evaluated by HTRF assay using LANCE Ultra ULight-Acetyl-CoA Carboxylase (SAMS) peptide (commercially available, Perkin Elmer catalog TRF0133-M).
The reaction was terminated after 60 minutes incubation at room temperature by the addition of 5 μL of stop and detection cocktail, which consisted of 1× Perkin Elmer Lance buffer (Perkin Elmer catalog number CR97-100), 40 mM EDTA (Thermo Fisher catalog number BP2482-100), and 2 nM Eu-anti-Acetyl CoA Carboxylase [pSer70] antibody (Perkin Elmer, TRF0208-M). Plates were spun at 1000 RPM, 10 seconds.

[2] = target: T2, AMPK 111 (Homo sapiens, UniProt Q13131+Q9Y478); experiment: Biochemical profiling of AMPK activators by AMPK111 (HTRF/TR-FRET assay, SAMS peptide, PP2A dephosphorylation protection); details: for EC50: phosphorylated AMPK 111 (α1β1δ1 as printed), 11 point dilution, duplicate, 4-parameter fit; for Emax: phosphorylated AMPK 111, maximal activation
T2 construct: open reading frames encoding the full-length α1, β1 and δ1 subunits of human AMPK; made in house; host or cells: E. coli BL21-CodonPlus (DE3)-RIPL, pET-14b
Experimental: as §1
Following a fifteen-minute room temperature incubation, 5 μL of 30 nM protein phosphatase PP2A (isolation detailed above) diluted in the assay buffer was added to the plate, to dephosphorylate pThr172 of AMPK. […] The reaction was terminated after 60 minutes incubation at room temperature, by the addition of 5 μL of stop and detection cocktail, which consisted of 1× Perkin Elmer Lance buffer (Perkin Elmer catalog number CR97-100), 40 mM EDTA (Thermo Fisher catalog number BP2482-100), and 2 nM Eu-anti-Acetyl CoA Carboxylase [pSer70] antibody (Perkin Elmer, TRF0208-M).

T1 sequence (P54646 whole entry): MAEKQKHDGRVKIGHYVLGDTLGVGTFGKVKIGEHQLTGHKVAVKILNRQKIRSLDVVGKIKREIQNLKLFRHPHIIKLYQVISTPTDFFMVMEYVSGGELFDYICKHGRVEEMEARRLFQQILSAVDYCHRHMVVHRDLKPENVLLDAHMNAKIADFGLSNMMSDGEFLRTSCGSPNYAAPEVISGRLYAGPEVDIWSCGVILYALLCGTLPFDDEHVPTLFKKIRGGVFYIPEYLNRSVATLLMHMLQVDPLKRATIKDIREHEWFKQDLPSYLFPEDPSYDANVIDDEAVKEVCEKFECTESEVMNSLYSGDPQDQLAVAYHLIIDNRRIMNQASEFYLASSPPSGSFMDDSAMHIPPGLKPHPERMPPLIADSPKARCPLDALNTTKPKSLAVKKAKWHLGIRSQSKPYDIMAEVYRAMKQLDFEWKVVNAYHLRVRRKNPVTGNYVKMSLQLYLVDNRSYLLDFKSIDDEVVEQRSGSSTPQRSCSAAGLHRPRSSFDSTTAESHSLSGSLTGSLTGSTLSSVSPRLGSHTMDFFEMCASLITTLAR
T1 sequence (O43741 whole entry): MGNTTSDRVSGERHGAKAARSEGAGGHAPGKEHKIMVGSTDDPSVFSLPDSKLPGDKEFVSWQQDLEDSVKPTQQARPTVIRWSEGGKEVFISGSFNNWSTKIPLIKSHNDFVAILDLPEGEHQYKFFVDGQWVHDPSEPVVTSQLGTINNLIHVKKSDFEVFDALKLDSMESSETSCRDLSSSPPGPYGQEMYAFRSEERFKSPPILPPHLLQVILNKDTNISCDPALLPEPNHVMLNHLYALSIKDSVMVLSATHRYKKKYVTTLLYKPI
T1 sequence (P54619 whole entry partner): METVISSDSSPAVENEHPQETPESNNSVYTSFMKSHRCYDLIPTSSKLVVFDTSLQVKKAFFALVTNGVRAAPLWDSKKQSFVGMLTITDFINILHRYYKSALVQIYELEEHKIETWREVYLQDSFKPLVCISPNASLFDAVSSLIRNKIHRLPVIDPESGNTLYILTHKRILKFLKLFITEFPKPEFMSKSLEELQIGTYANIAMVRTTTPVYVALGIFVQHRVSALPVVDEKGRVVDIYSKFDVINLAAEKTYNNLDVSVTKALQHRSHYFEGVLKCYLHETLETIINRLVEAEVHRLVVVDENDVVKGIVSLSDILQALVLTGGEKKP
T2 sequence (Q13131 whole entry): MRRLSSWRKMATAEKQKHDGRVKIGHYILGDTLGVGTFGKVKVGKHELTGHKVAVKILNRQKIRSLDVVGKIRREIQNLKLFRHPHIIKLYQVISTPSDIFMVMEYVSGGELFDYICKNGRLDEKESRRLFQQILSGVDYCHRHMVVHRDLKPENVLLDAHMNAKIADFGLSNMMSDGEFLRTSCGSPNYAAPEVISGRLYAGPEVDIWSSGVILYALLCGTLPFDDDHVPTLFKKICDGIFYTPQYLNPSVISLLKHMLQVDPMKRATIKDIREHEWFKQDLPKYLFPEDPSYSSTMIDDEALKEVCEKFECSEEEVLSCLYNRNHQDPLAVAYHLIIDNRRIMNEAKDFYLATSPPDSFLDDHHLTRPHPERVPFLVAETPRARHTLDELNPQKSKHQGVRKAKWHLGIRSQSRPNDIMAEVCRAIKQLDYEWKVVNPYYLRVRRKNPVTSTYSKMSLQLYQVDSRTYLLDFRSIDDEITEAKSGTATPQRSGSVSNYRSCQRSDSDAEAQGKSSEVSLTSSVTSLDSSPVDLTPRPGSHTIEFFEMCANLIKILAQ
T2 sequence (Q9Y478 whole entry): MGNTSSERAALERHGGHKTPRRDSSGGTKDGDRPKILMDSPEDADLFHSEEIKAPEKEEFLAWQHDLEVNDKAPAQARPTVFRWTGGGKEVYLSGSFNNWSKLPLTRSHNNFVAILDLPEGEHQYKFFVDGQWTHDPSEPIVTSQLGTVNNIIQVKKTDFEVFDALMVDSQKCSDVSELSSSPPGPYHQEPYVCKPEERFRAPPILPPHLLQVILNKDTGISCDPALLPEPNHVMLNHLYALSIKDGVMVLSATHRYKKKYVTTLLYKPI
T2 sequence (P54619 whole entry partner): as the sequence (P54619 whole entry partner) above

| SMILES | EC50 [1] [nM] | Emax [1] [%] | EC50 [2] [nM] | Emax [2] [%] |
| --- | --- | --- | --- | --- |
| COc1ccc(Cl)c(-c2ccc(-c3cc4c(CCC(=O)O)n[nH]c4cc3Cl)cc2)c1O [Example 14, 3-(6-chloro-5-(6′-chloro-2′-hydroxy-3′-methoxy-[1,1′-biphenyl]-4-yl)-1H-indazol-3-yl)propanoic acid] | 72 | 65 | 45 | 74 |
| COc1c(F)ccc(-c2ccc(-c3cc4c(CCC(=O)O)n[nH]c4cc3Cl)cc2)c1O [Example 16, 3-(6-chloro-5-(4′-fluoro-2′-hydroxy-3′-methoxy-[1,1′-biphenyl]-4-yl)-1H-indazol-3-yl)propanoic acid] | 81 | 64 | 37 | 86 |
| NC(=O)CSc1ccc(-c2ccc(-c3cc4c(CCC(=O)O)n[nH]c4cc3Cl)cc2)cc1 [Example 17, 3-(5-(4′-((2-amino-2-oxoethyl)thio)-[1,1′-biphenyl]-4-yl)-6-chloro-1H-indazol-3-yl)propanoic acid] | 83 | 49 | 34 | 80 |
| Cc1ccc(F)c(O)c1-c1ccc(-c2cc3c(CCC(=O)O)n[nH]c3cc2Cl)cc1 [Example 20, 3-(6-chloro-5-(3′-fluoro-2′-hydroxy-6′-methyl-[1,1′-biphenyl]-4-yl)-1H-indazol-3-yl)propanoic acid] | 97 | 61 | 16 | 82 |
| COc1ccc(-c2ccc(-c3cc4c(CCC(=O)O)n[nH]c4cc3Cl)cc2)c(O)c1 [Example 21, 3-(6-chloro-5-(2′-hydroxy-4′-methoxy-[1,1′-biphenyl]-4-yl)-1H-indazol-3-yl)propanoic acid] | 97 | 56 | 151 | 65 |
| CNC(=O)c1ccc(-c2ccc(-c3cc4c(CCC(=O)O)n[nH]c4cc3Cl)cc2)c(O)c1 [Example 23, 3-(6-chloro-5-(2′-hydroxy-4′-(methylcarbamoyl)-[1,1′-biphenyl]-4-yl)-1H-indazol-3-yl)propanoic acid] | 5 | 56 | 2 | 71 |
| Cc1cncc(O)c1-c1ccc(-c2cc3c(CCC(=O)O)n[nH]c3cc2Cl)cc1 [Example 27, 3-(6-chloro-5-(4-(3-hydroxy-5-methylpyridin-4-yl)phenyl)-1H-indazol-3-yl)propanoic acid] | 125 | 62 | 7 | 87 |
| CS(=O)(=O)Nc1ccc(-c2ccc(-c3cc4c(CCC(=O)O)n[nH]c4cc3Cl)cc2)cc1 [Example 32, 3-(6-chloro-5-(4′-(methylsulfonamido)-[1,1′-biphenyl]-4-yl)-1H-indazol-3-yl)propanoic acid] | 198 | 41 | 136 | 71 |
| O=C(O)CCc1n[nH]c2cc(F)c(-c3ccc(-c4ccccc4O)cc3)cc12 [Example 33, 3-(6-fluoro-5-(2′-hydroxy-[1,1′-biphenyl]-4-yl)-1H-indazol-3-yl)propanoic acid] | 196 | 57 | 301 | 57 |

Other lines, results leading:

| EC50 [1] [nM] | Emax [1] [%] | EC50 [2] [nM] | Emax [2] [%] | SMILES |
| --- | --- | --- | --- | --- |
| 76 | 52 | 35 | 75 | Cc1cccc(O)c1-c1ccc(-c2cc3c(CCC(=O)O)n[nH]c3cc2Cl)cc1 [Example 15, 3-(6-chloro-5-(2′-hydroxy-6′-methyl-[1,1′-biphenyl]-4-yl)-1H-indazol-3-yl)propanoic acid] |
| 96 | 64 | 12 | 84 | Cc1cc(C)c(-c2ccc(-c3cc4c(CCC(=O)O)n[nH]c4cc3Cl)cc2)c(O)c1 [Example 18, 3-(6-chloro-5-(2′-hydroxy-4′,6′-dimethyl-[1,1′-biphenyl]-4-yl)-1H-indazol-3-yl)propanoic acid] |
| 144 | 34 | 54 | 79 | O=C(O)CNc1n[nH]c2cc(Cl)c(-c3ccc(-c4ccccc4O)cc3)cc12 [Example 19, (6-Chloro-5-(2′-hydroxy-[1,1′-biphenyl]-4-yl)-1H-indazol-3-yl)glycine] |
| 100 | 59 | 111 | 74 | O=C(O)CCc1n[nH]c2cc(Cl)c(-c3ccc(-c4cccc(F)c4O)cc3)cc12 [Example 22, 3-(6-chloro-5-(3′-fluoro-2′-hydroxy-[1,1′-biphenyl]-4-yl)-1H-indazol-3-yl)propanoic acid] |
| 106 | 48 | 19 | 86 | CS(=N)(=O)c1ccc(-c2ccc(-c3cc4c(CCC(=O)O)n[nH]c4cc3Cl)cc2)cc1 (stereo not drawn) [Example 24, 3-(6-chloro-5-(4′-(S-methylsulfonimidoyl)-[1,1′-biphenyl]-4-yl)-1H-indazol-3-yl)propanoic acid] |
| 107 | 61 | 144 | 71 | CCOc1cccc(-c2ccc(-c3cc4c(CCC(=O)O)n[nH]c4cc3Cl)cc2)c1O [Example 25, 3-(6-chloro-5-(3′-ethoxy-2′-hydroxy-[1,1′-biphenyl]-4-yl)-1H-indazol-3-yl)propanoic acid] |
| 114 | 66 | 107 | 77 | COc1ccc(F)c(-c2ccc(-c3cc4c(CCC(=O)O)n[nH]c4cc3Cl)cc2)c1O [Example 26, 3-(6-chloro-5-(6′-fluoro-2′-hydroxy-3′-methoxy-[1,1′-biphenyl]-4-yl)-1H-indazol-3-yl)propanoic acid] |
| 136 | 63 | 277 | 73 | COc1c(Cl)ccc(-c2ccc(-c3cc4c(CCC(=O)O)n[nH]c4cc3Cl)cc2)c1O [Example 28, 3-(6-chloro-5-(4′-chloro-2′-hydroxy-3′-methoxy-[1,1′-biphenyl]-4-yl)-1H-indazol-3-yl)propanoic acid] |
| 162 | 63 | 46 | 72 | CN(C)C(=O)c1ccc(-c2ccc(-c3cc4c(CCC(=O)O)n[nH]c4cc3Cl)cc2)cc1 [Example 29, 3-(6-chloro-5-(4′-(dimethylcarbamoyl)-[1,1′-biphenyl]-4-yl)-1H-indazol-3-yl)propanoic acid] |
| 173 | 65 | 36 | 80 | NC(=O)Cc1ccc(-c2ccc(-c3cc4c(CCC(=O)O)n[nH]c4cc3Cl)cc2)cc1 [Example 30, 3-(5-(4′-(2-amino-2-oxoethyl)-[1,1′-biphenyl]-4-yl)-6-chloro-1H-indazol-3-yl)propanoic acid] |
| 190 | 61 | 57 | 84 | COC(=O)c1ccc(-c2ccc(-c3cc4c(CCC(=O)O)n[nH]c4cc3Cl)cc2)c(O)c1 [Example 31, 3-(6-Chloro-5-(2′-hydroxy-4′-(methoxycarbonyl)-[1,1′-biphenyl]-4-yl)-1H-indazol-3-yl)propanoic acid] |
| 197 | 50 | 228 | 68 | Cc1ccc(-c2ccc(-c3cc4c(CCC(=O)O)n[nH]c4cc3Cl)cc2)c(O)c1 [Example 34, 3-(6-chloro-5-(2′-hydroxy-4′-methyl-[1,1′-biphenyl]-4-yl)-1H-indazol-3-yl)propanoic acid] |
